Values quoted from earlier work in patent US9440985B2, “Tricyclic derivatives of N,N′-substituted 3,7-diazabicyclo [3.3.1]nonanes and drugs based thereon” (priority 2011, dated 2016).

Assays:
AMPA receptors [1] = conditions: adult rats; 0.3-3 mg/kg
AMPA receptors [2] = test system: AMPA receptors
AMPA receptors [3] = conditions: high concentrations

Row | SMILES | social memory (AMPA receptors [1]) | NMDA-mediated signals (AMPA receptors [2]) | synaptic signal (AMPA receptors [2]; several hippocampus sites) | concentration at which the clinical effect is manifested (AMPA receptors [3])
1 | O=C(c1ccc2c(c1)OCCO2)N1CCCCC1 [CX546] | improves social memory |  |  | 
2 | COc1ccc(C(=O)N2CCCC2=O)cc1 [aniracetam] |  | no effect | enhances the synaptic signal | 0.1 mM
